Laboratory results published in patent US6355799B1, “Substituted benzene compounds, process for their preparation, and herbicidal and defoliant compositions containing them” (ISK Americas Incorporated, priority 1997, dated 2002).

Legend:
Assay type in all cases: in vivo
[1] = system: upland rice (Oryza sp., var. Tebonnet, RICE); assay: Pre-emerge test, crop safety; details: pre-emerge, 14 days after application, rating scale 0-100
Procedure, shortened: (§1)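 Herbicidal damage is scored 0 (none) to 100 (complete plant death) two weeks after a simulated field spray. Rates span 15–1000 g ai/ha, delivered in acetone at 187 l/ha. For post-emergence treatments, plants have 2–3 leaves and the spray carries 0.25% v/v non-ionic surfactant.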

[2] = system: field corn (Zea mays L., var. Dekalb 535, CORN); assay: Pre-emerge test, crop safety; details: pre-emerge, 14 days after application, rating scale 0-100
Procedure, shortened: as §1

[3] = system: redroot pigweed (Amaranthus retroflexus, AMARE); assay: Pre-emerge test, greenhouse herbicide activity screening; details: pre-emerge, 14 days after application, rating scale 0-100
Procedure, shortened: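 Compounds in acetone were track-sprayed at 187 l/ha, 15–1000 g ai/ha, onto sandy loam pots. Pre-emerge seeds were sown one day before spraying, with surface watering afterwards. Post-emerge plants were at the 2–3 leaf stage and sprayed with 0.25% v/v non-ionic surfactant. Injury was rated 0–100 at 14 days.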

[4] = system: upland rice (Oryza sp., var. Tebonnet, RICE); assay: Post-emerge test, crop safety; details: post-emerge, 14 days after application, rating scale 0-100
Procedure, shortened: (§2)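 Each test used a mechanized track sprayer delivering 187 l/ha of acetone solution at 15–1000 g ai/ha. Post-emerge foliage at 2–3 leaves was treated with added 0.25% v/v non-ionic surfactant and bottom-watered only. Injury was assessed on day 14, where 100 means total kill.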

[5] = system: field corn (Zea mays L., var. Dekalb 535, CORN); assay: Post-emerge test, crop safety; details: post-emerge, 14 days after application, rating scale 0-100
Procedure, shortened: as §2

[6] = system: barnyardgrass (Echinochloa crus-galli, ECHCG); assay: Post-emerge test, greenhouse herbicide activity screening; details: post-emerge, 14 days after application, rating scale 0-100
Procedure, shortened: (§3)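 Visual ratings on a 0-100 scale (0 no damage, 100 all plants dead) were taken at 14 days after treatment. Rates of 15-1000 g ai/ha in acetone, 187 l/ha, were sprayed onto soil one day after planting (pre-emerge) or onto 2-3 leaf plants with 0.25% v/v surfactant (post-emerge).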

[7] = system: redroot pigweed (Amaranthus retroflexus, AMARE); assay: as above; details: post-emerge, 14 days after application
Procedure, shortened: as §3

[8] = system: johnsongrass (Sorghum halepense, SORHA); assay: as above; details: post-emerge, 14 days after application, rating scale 0-100
Procedure, shortened: as §3

[9] = system: large crabgrass (Digitaria sanguinalis, DIGSA); assay: as above; details: post-emerge, 14 days after application, rating scale 0-100
Procedure, shortened: as §3

[10] = system: sicklepod (Cassia obtusifolia, CASOB); assay: as above; details: post-emerge, 14 days after application, rating scale 0-100
Procedure, shortened: as §3

[11] = system: velvetleaf (Abutilon theophrasti, ABUTH); assay: as above; details: post-emerge, 14 days after application, rating scale 0-100
Procedure, shortened: as §3

[12] = system: ivyleaf morningglory (Ipomoea hederacea, IPOHE); assay: as above; details: post-emerge, 14 days after application, rating scale 0-100
Procedure, shortened: as §3

[13] = system: lambsquarters (Chenopodium album, CHEAL); assay: as above; details: post-emerge, 14 days after application, rating scale 0-100
Procedure, shortened: as §3

[14] = system: green foxtail (Setaria viridis, SETVI); assay: as above; details: post-emerge, 14 days after application, rating scale 0-100
Procedure, shortened: as §3

[15] = system: barnyardgrass (Echinochloa crus-galli, ECHCG); assay: Pre-emerge test, greenhouse herbicide activity screening; details: pre-emerge, 14 days after application, rating scale 0-100
Procedure, shortened: (§4)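 Plants grown in 10 cm pots of sandy loam mix received acetone-dissolved compounds through a moving flat-fan nozzle. Doses ranged from 15 to 1000 g ai/ha. Pre-emerge pots were seeded one day earlier, post-emerge pots 8–21 days earlier. Fourteen days on, each pot was graded 0–100 for damage.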

[16] = system: johnsongrass (Sorghum halepense, SORHA); assay: as above; details: pre-emerge, 14 days after application, rating scale 0-100
Procedure, shortened: as §4

[17] = system: large crabgrass (Digitaria sanguinalis, DIGSA); assay: as above; details: pre-emerge, 14 days after application, rating scale 0-100
Procedure, shortened: as §4

[18] = system: sicklepod (Cassia obtusifolia, CASOB); assay: as above; details: pre-emerge, 14 days after application, rating scale 0-100
Procedure, shortened: as §4

[19] = system: velvetleaf (Abutilon theophrasti, ABUTH); assay: as above; details: pre-emerge, 14 days after application, rating scale 0-100
Procedure, shortened: as §4

[20] = system: ivyleaf morningglory (Ipomoea hederacea, IPOHE); assay: as above; details: pre-emerge, 14 days after application, rating scale 0-100
Procedure, shortened: as §4

[21] = system: lambsquarters (Chenopodium album, CHEAL); assay: as above; details: pre-emerge, 14 days after application, rating scale 0-100
Procedure, shortened: as §4

[22] = system: green foxtail (Setaria viridis, SETVI); assay: as above; details: pre-emerge, 14 days after application, rating scale 0-100
Procedure, shortened: as §4

COc1c(Cl)cc(F)c(-n2c(=O)cc(C(F)(F)F)n(C)c2=O)c1NN=CCCSC [15-14]
50: Post-emerge Herbicidal Activity RICE (crop damage rating) ([4]; 250 g ai/ha)
70: Post-emerge Herbicidal Activity SORHA (phytotoxicity rating) ([8]; 250 g ai/ha)
65: Post-emerge Herbicidal Activity CORN (crop damage rating) ([5]; 250 g ai/ha)
20: Post-emerge Herbicidal Activity CORN (crop damage rating) ([5]; 63 g ai/ha) | Post-emerge Herbicidal Activity ECHCG (phytotoxicity rating) ([6]; 63 g ai/ha) | Post-emerge Herbicidal Activity SORHA (phytotoxicity rating) ([8]; 63 g ai/ha) | Post-emerge Herbicidal Activity DIGSA (phytotoxicity rating) ([9]; 63 g ai/ha) | Post-emerge Herbicidal Activity SETVI (phytotoxicity rating) ([14]; 63 g ai/ha)
80: Post-emerge Herbicidal Activity CASOB (phytotoxicity rating) ([10]; 63 g ai/ha)
40: phytotoxicity rating CORN ([2]; 63 g ai/ha) | Post-emerge Herbicidal Activity RICE (crop damage rating) ([4]; 63 g ai/ha)
55: Post-emerge Herbicidal Activity SETVI (phytotoxicity rating) ([14]; 250 g ai/ha)
60: Post-emerge Herbicidal Activity DIGSA (phytotoxicity rating) ([9]; 250 g ai/ha)
90: Post-emerge Herbicidal Activity ECHCG (phytotoxicity rating) ([6]; 250 g ai/ha) | phytotoxicity rating CASOB ([18]; 63 g ai/ha)
99: phytotoxicity rating RICE ([1]; 63 g ai/ha) | phytotoxicity rating CORN ([2]; 250 g ai/ha)
100: phytotoxicity rating RICE ([1]; 250 g ai/ha) | phytotoxicity rating AMARE ([3]; 63 g ai/ha) | phytotoxicity rating AMARE ([3]; 250 g ai/ha) | Post-emerge Herbicidal Activity AMARE (phytotoxicity rating) ([7]; 63 g ai/ha, rating scale 0-100 (0 no damage, 100 complete death)) | Post-emerge Herbicidal Activity AMARE (phytotoxicity rating) ([7]; 250 g ai/ha, rating scale 0-100) | Post-emerge Herbicidal Activity CASOB (phytotoxicity rating) ([10]; 250 g ai/ha) | Post-emerge Herbicidal Activity ABUTH (phytotoxicity rating) ([11]; 63 g ai/ha) | Post-emerge Herbicidal Activity ABUTH (phytotoxicity rating) ([11]; 250 g ai/ha) | Post-emerge Herbicidal Activity IPOHE (phytotoxicity rating) ([12]; 63 g ai/ha) | Post-emerge Herbicidal Activity IPOHE (phytotoxicity rating) ([12]; 250 g ai/ha) | Post-emerge Herbicidal Activity CHEAL (phytotoxicity rating) ([13]; 63 g ai/ha) | Post-emerge Herbicidal Activity CHEAL (phytotoxicity rating) ([13]; 250 g ai/ha) | phytotoxicity rating ECHCG ([15]; 63 g ai/ha) | phytotoxicity rating ECHCG ([15]; 250 g ai/ha) | phytotoxicity rating SORHA ([16]; 63 g ai/ha) | phytotoxicity rating SORHA ([16]; 250 g ai/ha) | phytotoxicity rating DIGSA ([17]; 63 g ai/ha) | phytotoxicity rating DIGSA ([17]; 250 g ai/ha) | phytotoxicity rating CASOB ([18]; 250 g ai/ha) | phytotoxicity rating ABUTH ([19]; 63 g ai/ha) | phytotoxicity rating ABUTH ([19]; 250 g ai/ha) | phytotoxicity rating IPOHE ([20]; 63 g ai/ha) | phytotoxicity rating IPOHE ([20]; 250 g ai/ha) | phytotoxicity rating CHEAL ([21]; 63 g ai/ha) | phytotoxicity rating CHEAL ([21]; 250 g ai/ha) | phytotoxicity rating SETVI ([22]; 63 g ai/ha) | phytotoxicity rating SETVI ([22]; 250 g ai/ha)
